Results: PubChem BioAssay AID1963840 (Molecular Pharmacology Branch, DTP, NCI, 2024)

Test system: 695427-040-R-J1-PDC complex spheroid viability
Test: Anticancer human tumor 695427-040-R-J1-PDC patient-derived colon adenocarcinoma cell line growth inhibition [POLQ]
Details: for IC50: curve of first compound; for viability, T/C: stronger effect = lower value; active = viability on the fitted dose curve at most 10% of control; inactive = the rest
Method: Multicellular complex tumor spheroid response to Polymerase (POL) inhibitors (novobiocin, ART-558, RP6685) in combination with a variety of drugs and investigational agents in selected tumor cell lines
The POL inhibitors (novobiocin, ART-558, and RP6685) were evaluated both individually and in combination with standard of care and investigational anticancer small molecules within a complex spheroid model of solid tumors. . Complex spheroids include a stromal component modeled by human endothelial cells (HUVEC) and fibroblasts modeled by human mesenchymal stem cells (MSCs). The concentration ranges selected for each drug and investigational agent were based upon clinically achievable concentrations if the clinical Cmax of the agent was known.
Compounds. The drugs and investigational agents: novobiocin (NSC847541), ART-558 (NSC835418), RP-6685 (NSC848927), peposertib (NSC802822), ceralasertib (NSC780249), elimusertib (NSC800525), camonsertib (NSC841442), AZD-1390 (NSC803789), olaparib (NSC753686), talazoparib (NSC767125), rucaparib (NSC756644), sotorasib (NSC818433), MRTX-1133 (NSC836407), SN-38 (NSC673596), topotecan (NSC609699), epotoside (NSC141540), doxorubicin (NSC123127), gemcitabine (NSC613327), 5-fluorouracil (NSC19893), paclitaxel (NSC125973), vemurafenib (NSC761431), MSA-2 (NSC828583), SN-011 (NSC837082), adavosertib (NSC754352), prexasertib (NSC758257), carboplatin (NSC241240) and oxaliplatin (NSC266046), were obtained from the National Cancer Institute (NCI) Developmental Therapeutics Program Chemical Repository (21). The FDA-approved anticancer drug set is available from the Developmental Therapeutics Program at https://dtp.cancer.gov/organization/dscb/obtaining/. […] The stock solutions were prepared in dimethyl sulfoxide (DMSO, Sigma-Aldrich, St. Louis, MO, cat. D2650), except for the platinum compounds which were prepared in saline (Quality Biological, Gaithersburg, MD, cat. 114-055-101), at 800-fold the tested concentration and stored at -70 degrees C prior to their use. All drugs and investigational agents were tested over a range starting from a high concentration at or near the clinical Cmax and decreasing in half-log increments. If the clinical Cmax for an agent had not been determined, the highest concentration tested was 10 microM, except for SN-38, which was tested at a high concentration of 1 microM.
Cell Culture. All cells were maintained in an incubator at 37 degrees C and 5% CO2 with 95% humidity. The PDC lines were cultured according to standard operating procedures established by the NCI PDMR (https://pdmr.cancer.gov). Table 3 of the manuscript, lists the cell lines along with the number of the three cell types plated to form the mct-spheroids and media for tumor cell growth. After thawing, all PDC lines, except 997537-175-T-J1-PDC and 415267-285-R-J2-PDC, were cultured in Matrigel-coated flasks prepared with a working solution of 1X Ham's F-12 nutrient mix, without supplementation (Thermo Fisher Scientific, cat. 11765054), 100 U/mL penicillin-streptomycin (Thermo Fisher Scientific, cat. 15140122), and 2.5% Matrigel (Corning Inc., Corning, NY, cat. 354248) for the first three passages. The two PDC lines 997537-175-T-J1-PDC and 415267-285-R-J2-PDC were cultured on uncoated flasks. The 857933-349-R-J2-PDC line was cultured in 6C/Colon 1B media containing advanced DMEM/F-12 (Thermo Fisher Scientific, cat. 12634028), 10 mM HEPES (Thermo Fisher Scientific, cat. 15630080), 1X GlutaMAX supplement (Thermo Fisher Scientific, cat. 35050061), 0.1 mg/mL primocin (InvivoGen, San Diego, CA, cat. ant-pm-2), 10% defined fetal bovine serum, heat inactivated (HyClone Laboratories Inc., Logan, UT, cat. SH30070.03HI), 50% L-WRN conditioned media (ATCC, cat. CRL-3276), 1.25 mM N-Acetyl-L-cysteine (Sigma-Aldrich, cat. A9165), 10 mM nicotinamide (Sigma-Aldrich, cat. N0636), 1X B-27 supplement (Thermo Fisher Scientific, cat. 17504044), 1X N-2 supplement (Thermo Fisher Scientific, cat. […]

[1] = second compound 0.0316 µM, first compound 0.0316 µM
[2] = second compound 0.0316 µM, first compound 0.1 µM
[3] = second compound 0.0316 µM, first compound 0.316 µM
[4] = second compound 0.0316 µM, first compound 1 µM
[5] = second compound 0.0316 µM, first compound 3.16 µM
[6] = second compound 0.0316 µM, first compound 10 µM
[7] = second compound 0.1 µM, first compound 0.0316 µM
[8] = second compound 0.1 µM, first compound 0.1 µM
[9] = second compound 0.1 µM, first compound 0.316 µM
[10] = second compound 0.1 µM, first compound 1 µM
[11] = second compound 0.1 µM, first compound 3.16 µM
[12] = second compound 0.1 µM, first compound 10 µM
[13] = second compound 0.316 µM, first compound 0.0316 µM
[14] = second compound 0.316 µM, first compound 0.1 µM
[15] = second compound 0.316 µM, first compound 0.316 µM
[16] = second compound 0.316 µM, first compound 1 µM
[17] = second compound 0.316 µM, first compound 3.16 µM
[18] = second compound 0.316 µM, first compound 10 µM
[19] = second compound 1 µM, first compound 0.0316 µM
[20] = second compound 1 µM, first compound 0.1 µM
[21] = second compound 1 µM, first compound 0.316 µM
[22] = second compound 1 µM, first compound 1 µM
[23] = second compound 1 µM, first compound 3.16 µM
[24] = second compound 1 µM, first compound 10 µM
[25] = second compound 3.16 µM, first compound 0.0316 µM
[26] = second compound 3.16 µM, first compound 0.1 µM
[27] = second compound 3.16 µM, first compound 0.316 µM
[28] = second compound 3.16 µM, first compound 1 µM
[29] = second compound 3.16 µM, first compound 3.16 µM
[30] = second compound 3.16 µM, first compound 10 µM
[31] = second compound 10 µM, first compound 0.0316 µM
[32] = second compound 10 µM, first compound 0.1 µM
[33] = second compound 10 µM, first compound 0.316 µM
[34] = second compound 10 µM, first compound 1 µM
[35] = second compound 10 µM, first compound 3.16 µM
[36] = second compound 10 µM, first compound 10 µM
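Also: spheroids exposed to compounds for seven days.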

CC1COCCN1c1cc(-c2ccnn2C)c2ccnc(-c3ccn[nH]3)c2n1 (centres undefined) + Nc1ccc(C#CCN(C(=O)Cc2ncc(C(F)(F)F)cc2C(F)(F)F)c2ccc(F)cc2)nn1
> 10 µM: IC50 (second compound 0.0316 µM) | IC50 (second compound 0.1 µM) | IC50 (second compound 0.316 µM) | IC50 (second compound 1 µM) | IC50 (second compound 3.16 µM) | IC50 (second compound 10 µM)
inactive: viability, T/C [1] 92.9% | viability, T/C [2] 91.8% | viability, T/C [3] 72.9% | viability, T/C [4] 66.8% | viability, T/C [5] 61.6% | viability, T/C [6] 56.3% | viability, T/C [7] 117% | viability, T/C [8] 89.1% | viability, T/C [9] 74.3% | viability, T/C [10] 66.3% | viability, T/C [11] 61.7% | viability, T/C [12] 56.2% | viability, T/C [13] 105% | viability, T/C [14] 92.7% | viability, T/C [15] 71% | viability, T/C [16] 62.5% | viability, T/C [17] 65% | viability, T/C [18] 56.9% | viability, T/C [19] 108% | viability, T/C [20] 83.5% | viability, T/C [21] 73.6% | viability, T/C [22] 65.6% | viability, T/C [23] 59.7% | viability, T/C [24] 51.4% | viability, T/C [25] 102% | viability, T/C [26] 84.3% | viability, T/C [27] 70.3% | viability, T/C [28] 61.1% | viability, T/C [29] 61.8% | viability, T/C [30] 52.2% | viability, T/C [31] 92% | viability, T/C [32] 80.3% | viability, T/C [33] 64.2% | viability, T/C [34] 57.8% | viability, T/C [35] 58.5% | viability, T/C [36] 58%

CCCS(=O)(=O)Nc1ccc(F)c(C(=O)c2c[nH]c3ncc(-c4ccc(Cl)cc4)cc23)c1F + Nc1ccc(C#CCN(C(=O)Cc2ncc(C(F)(F)F)cc2C(F)(F)F)c2ccc(F)cc2)nn1
> 10 µM: IC50 (second compound 0.0316 µM) | IC50 (second compound 0.1 µM) | IC50 (second compound 0.316 µM) | IC50 (second compound 1 µM) | IC50 (second compound 3.16 µM) | IC50 (second compound 10 µM)
inactive: viability, T/C [1] 101% | viability, T/C [2] 100% | viability, T/C [3] 102% | viability, T/C [4] 111% | viability, T/C [5] 117% | viability, T/C [6] 88.8% | viability, T/C [7] 112% | viability, T/C [8] 108% | viability, T/C [9] 105% | viability, T/C [10] 106% | viability, T/C [11] 113% | viability, T/C [12] 87.1% | viability, T/C [13] 100% | viability, T/C [14] 108% | viability, T/C [15] 107% | viability, T/C [16] 102% | viability, T/C [17] 106% | viability, T/C [18] 85.4% | viability, T/C [19] 103% | viability, T/C [20] 99.9% | viability, T/C [21] 107% | viability, T/C [22] 102% | viability, T/C [23] 110% | viability, T/C [24] 81.7% | viability, T/C [25] 109% | viability, T/C [26] 100% | viability, T/C [27] 103% | viability, T/C [28] 107% | viability, T/C [29] 111% | viability, T/C [30] 88.8% | viability, T/C [31] 95.1% | viability, T/C [32] 92.8% | viability, T/C [33] 110% | viability, T/C [34] 95.3% | viability, T/C [35] 97.2% | viability, T/C [36] 85.7%
